According to PubChem BioAssay (NCI):
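Cells were grown in 96-well plates and exposed to each compound for 48 hours at five concentrations; endpoints were interpolated linearly between bracketing concentrations, or set to the highest concentration if not reached. TGI: total growth inhibition.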

Tests used:
Assay in all cases: growth of human tumour cells (NCI), 48 h
HCT-15 colon = tested on: HCT-15 colon
NCI/ADR-RES ovarian = tested on: NCI/ADR-RES ovarian
T-47D breast = tested on: T-47D breast
DMS 114 small cell lung = tested on: DMS 114 small cell lung
SK-MEL-28 melanoma = tested on: SK-MEL-28 melanoma
SNB-78 CNS = tested on: SNB-78 CNS
COLO 205 colon = tested on: COLO 205 colon
ACHN renal = tested on: ACHN renal
PC-3 prostate = tested on: PC-3 prostate
HL-60(TB) leukemia = tested on: HL-60(TB) leukemia
HCT-116 colon = tested on: HCT-116 colon
MOLT-4 leukemia = tested on: MOLT-4 leukemia
SK-MEL-2 melanoma = tested on: SK-MEL-2 melanoma
SF-268 CNS = tested on: SF-268 CNS
MALME-3M melanoma = tested on: MALME-3M melanoma
SF-295 CNS = tested on: SF-295 CNS
EKVX NSCLC = tested on: EKVX NSCLC
NCI-H226 lung = tested on: NCI-H226 lung
NCI-H460 lung = tested on: NCI-H460 lung
HOP-18 NSCLC = tested on: HOP-18 NSCLC
SNB-19 CNS = tested on: SNB-19 CNS
KM20L2 colon = tested on: KM20L2 colon
OVCAR-5 ovarian = tested on: OVCAR-5 ovarian
SN12C renal = tested on: SN12C renal
M14 melanoma = tested on: M14 melanoma
SW-620 colon = tested on: SW-620 colon
HOP-92 NSCLC = tested on: HOP-92 NSCLC
HOP-62 NSCLC = tested on: HOP-62 NSCLC
RXF 393 renal = tested on: RXF 393 renal
MDA-N = tested on: MDA-N
UO-31 renal = tested on: UO-31 renal
LXFL 529 NSCLC = tested on: LXFL 529 NSCLC
NCI-H23 lung = tested on: NCI-H23 lung
KM12 colon = tested on: KM12 colon
A549 NSCLC = tested on: A549 NSCLC
HT29 colon = tested on: HT29 colon
CCRF-CEM leukemia = tested on: CCRF-CEM leukemia
TK-10 renal = tested on: TK-10 renal
U251 CNS = tested on: U251 CNS
IGROV1 ovarian = tested on: IGROV1 ovarian
MDA-MB-435 = tested on: MDA-MB-435
OVCAR-3 ovarian = tested on: OVCAR-3 ovarian
DLD-1 colon = tested on: DLD-1 colon
786-0 renal = tested on: 786-0 renal
DU-145 prostate = tested on: DU-145 prostate
K-562 leukemia = tested on: K-562 leukemia
BT-549 breast = tested on: BT-549 breast
OVCAR-8 ovarian = tested on: OVCAR-8 ovarian
SNB-75 CNS = tested on: SNB-75 CNS
HCC-2998 colon = tested on: HCC-2998 colon
UACC-257 melanoma = tested on: UACC-257 melanoma
HS 578T breast = tested on: HS 578T breast
OVCAR-4 ovarian = tested on: OVCAR-4 ovarian
LOX IMVI melanoma = tested on: LOX IMVI melanoma
UACC-62 melanoma = tested on: UACC-62 melanoma
SK-MEL-5 melanoma = tested on: SK-MEL-5 melanoma
MCF7 breast = tested on: MCF7 breast
RXF-631 renal = tested on: RXF-631 renal
SR leukemia = tested on: SR leukemia
RPMI-8226 leukemia = tested on: RPMI-8226 leukemia
SF-539 CNS = tested on: SF-539 CNS
M19-MEL melanoma = tested on: M19-MEL melanoma
NCI-H522 lung = tested on: NCI-H522 lung
CAKI-1 renal = tested on: CAKI-1 renal
MDA-MB-231 breast = tested on: MDA-MB-231 breast
A498 renal = tested on: A498 renal
SK-OV-3 ovarian = tested on: SK-OV-3 ovarian

OCCOc1ccc(-c2cc(-c3ccccn3)nc(-c3ccccn3)c2)cc1
TGI (HCT-15 colon): > 40.6 µM | TGI (NCI/ADR-RES ovarian): 2.4 µM | TGI (T-47D breast): > 100 µM | TGI (DMS 114 small cell lung): 1.93 µM | TGI (SK-MEL-28 melanoma): > 100 µM | TGI (SNB-78 CNS): > 100 µM | TGI (COLO 205 colon): 6.29 µM | TGI (ACHN renal): 3.78 µM | TGI (PC-3 prostate): > 100 µM | TGI (HL-60(TB) leukemia): 0.494 µM | TGI (HCT-116 colon): > 43.7 µM | TGI (MOLT-4 leukemia): 22.6 µM | TGI (SK-MEL-2 melanoma): 3.48 µM | TGI (SF-268 CNS): > 100 µM | TGI (MALME-3M melanoma): 17.5 µM | TGI (SF-295 CNS): > 100 µM | TGI (EKVX NSCLC): > 100 µM | TGI (NCI-H226 lung): 4.55 µM | TGI (NCI-H460 lung): 3.69 µM | TGI (HOP-18 NSCLC): 5.59 µM | TGI (SNB-19 CNS): > 100 µM | TGI (KM20L2 colon): > 41.8 µM | TGI (OVCAR-5 ovarian): 12.1 µM | TGI (SN12C renal): > 100 µM | TGI (M14 melanoma): 3.91 µM | TGI (SW-620 colon): > 100 µM | TGI (HOP-92 NSCLC): > 100 µM | TGI (HOP-62 NSCLC): > 18.9 µM | TGI (RXF 393 renal): 0.85 µM | TGI (MDA-N): > 100 µM | TGI (UO-31 renal): 1 µM | TGI (LXFL 529 NSCLC): > 100 µM | TGI (NCI-H23 lung): > 100 µM | TGI (KM12 colon): > 100 µM | TGI (A549 NSCLC): > 39.5 µM | TGI (HT29 colon): > 100 µM | TGI (CCRF-CEM leukemia): 40.4 µM | TGI (TK-10 renal): > 100 µM | TGI (U251 CNS): > 100 µM | TGI (IGROV1 ovarian): > 100 µM | TGI (MDA-MB-435): > 100 µM | TGI (OVCAR-3 ovarian): 6.67 µM | TGI (DLD-1 colon): > 100 µM | TGI (786-0 renal): 13.9 µM | TGI (DU-145 prostate): > 30.5 µM | TGI (K-562 leukemia): 11.4 µM | TGI (BT-549 breast): > 100 µM | TGI (OVCAR-8 ovarian): 2.6 µM | TGI (SNB-75 CNS): 26.1 µM | TGI (HCC-2998 colon): > 18.4 µM | TGI (UACC-257 melanoma): 12.9 µM | TGI (HS 578T breast): > 100 µM | TGI (OVCAR-4 ovarian): > 100 µM | TGI (LOX IMVI melanoma): 6.43 µM | TGI (UACC-62 melanoma): 2.66 µM | TGI (SK-MEL-5 melanoma): 8.54 µM | TGI (MCF7 breast): > 100 µM | TGI (RXF-631 renal): > 100 µM | TGI (SR leukemia): 11.7 µM | TGI (RPMI-8226 leukemia): > 96.7 µM | TGI (SF-539 CNS): 2.26 µM | TGI (M19-MEL melanoma): 0.593 µM | TGI (NCI-H522 lung): 14.1 µM | TGI (CAKI-1 renal): 17.7 µM | TGI (MDA-MB-231 breast): > 40.2 µM | TGI (A498 renal): 17 µM | TGI (SK-OV-3 ovarian): 2.17 µM
